ChEMBL document CHEMBL4808253, “Discovery of 1,3,4-oxadiazole derivatives as potential antitumor agents inhibiting the programmed cell death-1/programmed cell death-ligand 1 interaction” (Bioorg Med Chem, 2021)
Active and inactive are the calls of the source. The rule behind the calls is not given here.

Experiments:
[1] = biological target: T1, Programmed cell death protein 1/Programmed cell death 1 ligand 1 (Homo sapiens, UniProt Q15116+Q9NZQ7); experiment: Inhibition of PD1/PD-L1 (unknown origin) protein-protein interaction measured after 135 mins by TR-FRET assay relative to control; type: protein-complex assay
T1 sequence (Q15116 whole entry): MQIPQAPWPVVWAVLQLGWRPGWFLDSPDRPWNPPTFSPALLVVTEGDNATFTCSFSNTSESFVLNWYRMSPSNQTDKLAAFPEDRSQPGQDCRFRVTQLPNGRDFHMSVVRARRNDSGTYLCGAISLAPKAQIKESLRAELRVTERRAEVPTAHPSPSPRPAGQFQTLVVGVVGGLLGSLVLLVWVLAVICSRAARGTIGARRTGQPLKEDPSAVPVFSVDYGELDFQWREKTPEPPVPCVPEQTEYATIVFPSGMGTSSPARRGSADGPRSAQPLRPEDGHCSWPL
T1 sequence (Q9NZQ7 whole entry): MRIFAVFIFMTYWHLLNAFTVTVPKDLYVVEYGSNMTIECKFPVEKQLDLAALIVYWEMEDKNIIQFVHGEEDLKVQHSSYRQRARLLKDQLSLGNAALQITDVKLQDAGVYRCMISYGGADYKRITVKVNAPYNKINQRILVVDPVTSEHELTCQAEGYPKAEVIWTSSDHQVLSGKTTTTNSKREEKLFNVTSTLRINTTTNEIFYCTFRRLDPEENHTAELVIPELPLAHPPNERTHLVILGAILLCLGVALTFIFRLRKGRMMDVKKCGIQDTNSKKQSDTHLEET

[2] = Toxicity in BALB/c mouse allografted with mouse CT26 cells assessed as body weight change at 15 mg/kg, ip for 24 hrs measured for 14 days relative to control; type: organism-based; conditions: in vivo, 336 h, time 14 day
[3] = Toxicity in BALB/c mouse allografted with mouse CT26 cells assessed as unusual behaviour at 15 mg/kg, ip for 24 hrs measured for 14 days relative to control; type: organism-based; conditions: in vivo, 336 h, time 14 day
CT26 [4] = experiment: Antiproliferative activity against […] cells assessed as inhibition of cell growth at 11.11 uM incubated for 48 hrs by MTT assay; type: functional; conditions: Mus musculus
CT26 [5] = experiment: Antitumor activity against mouse CT26 cells allografted in BALB/c mouse assessed as tumor growth inhibition at 15 mg/kg, ip for 24 hrs measured for 14 days relative to control; type: functional; conditions: 336 h, time 14 day, read-out: TGI
CT26 [6] = experiment: Antiproliferative activity against mouse CT26 cells assessed as inhibition of cell growth incubated for 48 hrs by MTT assay; type: functional, cell-based; conditions: CT26, 48 h
[7] = Toxicity in BALB/c mouse allografted with mouse CT26 cells assessed as body weight change at 30 mg/kg, ip for 48 hrs measured for 14 days relative to control; type: organism-based; conditions: in vivo, 336 h, time 14 day
[8] = Toxicity in BALB/c mouse allografted with mouse CT26 cells assessed as unusual behaviour at 30 mg/kg, ip for 48 hrs measured for 14 days relative to control; type: organism-based; conditions: in vivo, 336 h, time 14 day
CT26 [9] = experiment: Antitumor activity against mouse CT26 cells allografted in BALB/c mouse assessed as tumor growth inhibition at 30 mg/kg, ip for 48 hrs measured for 14 days relative to control; type: functional; conditions: 336 h, time 14 day, read-out: TGI
[10] = biological target: T1, Programmed cell death protein 1/Programmed cell death 1 ligand 1; experiment: Inhibition of PD1/PD-L1 (unknown origin); type: protein-complex assay
CT26 [11] = experiment: Antitumor activity against mouse CT26 cells allografted in BALB/c mouse assessed as tumor growth inhibition at 15 mg/kg, ip for 48 hrs measured for 14 days in presence of 5-Fu relative to control; type: functional; conditions: read-out: TGI
[12] = Toxicity in BALB/c mouse allografted with mouse CT26 cells assessed as body weight change at 15 mg/kg, ip for 48 hrs measured for 14 days relative to control; type: organism-based; conditions: in vivo, 336 h, time 14 day
[13] = Toxicity in BALB/c mouse allografted with mouse CT26 cells assessed as unusual behaviour at 15 mg/kg, ip for 48 hrs measured for 14 days relative to control; type: organism-based; conditions: in vivo, 336 h, time 14 day
CT26 [14] = experiment: Antitumor activity against […] in BALB/c mouse assessed as increase in infiltration of CD4+ T cells into tumor cells at 15 mg/kg, ip for 48 hrs in presence of 5-Fu by immunohistochemistry analysis; type: functional, organism-based
CT26 [15] = experiment: Antitumor activity against mouse CT26 cells allografted in BALB/c mouse assessed as tumor growth inhibition at 15 mg/kg, ip for 48 hrs measured for 14 days relative to control; type: functional; conditions: 336 h, time 14 day, read-out: TGI
CT26 [16] = experiment: Antitumor activity against […] in BALB/c mouse assessed as increase in infiltration of CD4+ T cells into tumor cells at 15 mg/kg, ip for 48 hrs measured for 14 days relative to control; type: functional, organism-based

`Cc1c(COc2ccc(CNC(CO)(CO)CO)c(OCc3nc(-c4ccc(F)cc4)cs3)c2)cccc1-c1cccc(OCCCN2CCC(CO)CC2)c1` showed an IC50 [1] of 398 nM.

With `COc1nc(OCc2cccc(-c3ccccc3)c2C)ccc1CNCCNC(C)=O` the Activity [2] was “Non-Toxic”, the Activity [3] was “Non-Toxic” and the inhibition at 11.11 µM (CT26 [4]) was 75%. It also gave an inhibition in vivo at 15 mg/kg (CT26 [5]) of 22.9% and an IC50 (CT26 [6]) of 3350 nM.

Work on `Cc1c(COc2ccc(CNC(CO)(CO)CO)c(OCc3nc(-c4ccc(F)cc4)cs3)c2)cccc1-c1cccc(OCCCN2CCC(O)CC2)c1C` yielded an IC50 [1] of 167 nM.

Compound `Cc1ccccc1-c1cccc(COc2ccc(CNC(CO)(CO)CO)c(OCc3nnc(-c4ccccc4)o3)c2)c1C` has an IC50 [1] of 150 nM.

With `O=c1[nH]cc(F)c(=O)[nH]1` [FLUOROURACIL] the Activity [7] was “Non-Toxic”, the Activity [8] was “Non-Toxic” and the inhibition in vivo at 30 mg/kg (CT26 [9]) was 29.8%.

Compound `CS(=O)(=O)c1cncc(COc2nc(O[C@H]3CCc4c(-c5cccc6c5CC[C@@H]6Oc5nc(OCc6cncc(S(C)(=O)=O)c6)c(CN6C[C@@H](O)C[C@H]6C(=O)O)cc5Cl)cccc43)c(Cl)cc2CN2C[C@@H](O)C[C@H]2C(=O)O)c1` has an IC50 [10] of 0.051 nM.

For `Cc1c(-c2nc3cc(CN4CCCC[C@H]4C(=O)O)cc(Cl)c3o2)cccc1-c1cccc(NC(=O)c2ccc(CNCCO)cn2)c1Cl`, the IC50 [10] was less than 10 nM.

For `Cc1c(COc2ccc(CNC(CO)(CO)CO)c(OCc3nnc(-c4ccccc4)o3)c2)cccc1-c1cccc(OCCCN2CCC(CO)CC2)c1`, the inhibition in vivo at 15 mg/kg (CT26 [11]) was 64.6%, the Activity [12] was “Non-Toxic” and the Activity [13] was “Non-Toxic”. For the same compound, the inhibition at 11.11 µM (CT26 [4]) was 75%, the IC50 [1] was 38 nM and the Activity (CT26 [14]) was “Active”. The inhibition in vivo at 15 mg/kg (CT26 [15]) was 35.7%, the IC50 (CT26 [6]) was 19800 nM and the Activity (CT26 [16]) was “Active”.

In the case of `C[C@@](CO)(NCc1cc(Cl)c(O[C@H]2CCc3c(-c4cccc5c4CC[C@@H]5Oc4nc(OCc5cncc(S(C)(=O)=O)c5)c(CN[C@@](C)(CO)C(=O)O)cc4Cl)cccc32)nc1OCc1cncc(S(C)(=O)=O)c1)C(=O)O`, the IC50 [10] is reported as 0.058 nM.

For `Cc1c(COc2ccc(CNC(CO)(CO)CO)c(OCc3nnc(-c4ccccc4)o3)c2)cccc1-c1cccc(OCCCN2CCOCC2)c1`, the IC50 [1] was 642 nM.

For `Cc1c(-c2nc3cc(CN4CC[C@@](C)(C(=O)O)C4)cc(C#N)c3o2)cccc1-c1cccc(NC(=O)c2nc3c(n2C)CCN(C[C@@H](C)O)C3)c1Cl`, the IC50 [10] was less than 10 nM.
